How the values were obtained:
Bel-7402 = test: Cytotoxicity against human Bel7402 cells after 72 hrs by MTT assay; assay type: functional, cell-based; settings: Bel-7402, 72 h
HepG2 = test: Cytotoxicity against human HepG2 cells after 72 hrs by MTT assay; assay type: functional, cell-based; settings: HepG2, 72 h
[1] = Cytotoxicity against human HL-7702 cells after 72 hrs by MTT assay; assay type: cell-based; settings: L02, 72 h

SMILES | IC50 (Bel-7402) [µM] | IC50 (HepG2) [µM] | IC50 [1] [µM]
CC1(C)CC[C@]23CO[C@@]4(CC[C@@H]5[C@@]6(C)CC[C@H](O[C@@H]7OC[C@H](O[C@@H]8O[C@H](CO)[C@@H](O)[C@H](O)[C@H]8O)[C@H](O)[C@H]7O[C@@H]7O[C@H](CO)[C@@H](O)[C@H](O)[C@H]7O)C(C)(C)[C@@H]6CC[C@@]5(C)[C@]4(C)C[C@H]2O)[C@@H]3C1 | 4.18 | 14.4 | > 100
C[C@@H]1O[C@@H](O[C@H]2[C@H](O[C@H]3CO[C@@H](O[C@H]4CC[C@]5(C)[C@H]6CC[C@]78OC[C@@]9(CC[C@](C)(C(=O)O)C[C@H]97)C(=O)C[C@@]8(C)[C@]6(C)CC[C@H]5C4(C)C)[C@H](O[C@@H]4O[C@H](CO)[C@@H](O)[C@H](O)[C@H]4O)[C@H]3O)O[C@H](CO)[C@@H](O)[C@@H]2O)[C@H](O)[C@H](O)[C@H]1O | > 100 | > 100 | > 100
COC(OC)[C@@]1(C)CC[C@]23CO[C@@]4(CC[C@@H]5[C@@]6(C)CC[C@H](O[C@@H]7OC[C@H](O[C@@H]8O[C@H](CO)[C@@H](O)[C@H](O)[C@H]8O[C@@H]8O[C@@H](C)[C@H](O)[C@@H](O)[C@H]8O)[C@H](O)[C@H]7O)C(C)(C)[C@@H]6CC[C@@]5(C)[C@]4(C)C[C@H]2O)[C@@H]3C1 | > 100 | > 100 | > 100
C[C@@H]1O[C@@H](O[C@H]2[C@H](O[C@H]3CO[C@@H](O[C@H]4CC[C@]5(C)[C@H]6CC=C7[C@@H]8C[C@@](C)(C(=O)O)CC[C@]8(CO)[C@H](O)C[C@@]7(C)[C@]6(C)CC[C@H]5C4(C)C)[C@H](O[C@@H]4O[C@H](CO)[C@@H](O)[C@H](O)[C@H]4O)[C@H]3O)O[C@H](CO)[C@@H](O)[C@@H]2O)[C@H](O)[C@H](O)[C@H]1O | > 100 | > 100 | > 100
C[C@@H]1O[C@@H](O[C@H]2[C@H](O[C@H]3CO[C@@H](O[C@H]4CC[C@]5(C)[C@H]6CC[C@]78OC[C@@]9(CC[C@](C)(C=O)C[C@H]97)[C@H](O)C[C@@]8(C)[C@]6(C)CC[C@H]5C4(C)C)[C@H](O[C@@H]4O[C@H](CO)[C@@H](O)[C@H](O)[C@H]4O)[C@H]3O)O[C@H](CO)[C@@H](O)[C@@H]2O)[C@H](O)[C@H](O)[C@H]1O [ARDISIACRISPIN B] | 4.46 | 21 | > 100
C[C@@H]1O[C@@H](O[C@H]2[C@H](O[C@H]3CO[C@@H](O[C@H]4CC[C@]5(C)[C@H]6CC=C7[C@@H]8C[C@@](C)(CO)CC[C@]8(CO)[C@H](O)C[C@@]7(C)[C@]6(C)CC[C@H]5C4(C)C)[C@H](O[C@@H]4O[C@H](CO)[C@@H](O)[C@H](O)[C@H]4O)[C@H]3O)O[C@H](CO)[C@@H](O)[C@@H]2O)[C@H](O)[C@H](O)[C@H]1O [ARDISIAMAMILLOSEDE C] | > 100 | > 100 | > 100
C[C@@H]1O[C@@H](O[C@H]2[C@H](O[C@H]3CO[C@@H](O[C@H]4CC[C@]5(C)[C@H]6CC[C@]78OC[C@@]9(CC[C@](C)(C=O)C[C@H]97)C(=O)C[C@@]8(C)[C@]6(C)CC[C@H]5C4(C)C)[C@H](O)[C@H]3O)O[C@H](CO)[C@@H](O)[C@@H]2O)[C@H](O)[C@H](O)[C@H]1O [ARDISIAMAMILLOSIDE H] | > 100 | > 100 | > 100
C[C@@H]1O[C@@H](O[C@H]2[C@H](O[C@H]3CO[C@@H](O[C@H]4CC[C@]5(C)[C@H]6CC[C@]78OC[C@@]9(CCC(C)(C)C[C@H]97)[C@H](O)C[C@@]8(C)[C@]6(C)CC[C@H]5C4(C)C)[C@H](O)[C@H]3O)O[C@H](CO)[C@@H](O)[C@@H]2O)[C@H](O)[C@H](O)[C@H]1O [ARDISIANOSIDE C] | 4.14 | 13.6 | > 100
CC1(C)CC[C@]23CO[C@@]4(CC[C@@H]5[C@@]6(C)CC[C@H](O[C@@H]7OC[C@H](O[C@@H]8O[C@H](CO)[C@@H](O)[C@H](O)[C@H]8O[C@@H]8OC[C@@H](O)[C@H](O)[C@H]8O)[C@H](O)[C@H]7O)C(C)(C)[C@@H]6CC[C@@]5(C)[C@]4(C)C[C@H]2O)[C@@H]3C1 [ARDISIANOSIDE D] | 14.8 | 31.2 | > 100
C[C@@H]1O[C@@H](O[C@H]2[C@H](O[C@H]3CO[C@@H](O[C@H]4CC[C@]5(C)[C@H]6CC[C@]78OC[C@@]9(CC[C@](C)(O)C[C@H]97)[C@H](O)C[C@@]8(C)[C@]6(C)CC[C@H]5C4(C)C)[C@H](O[C@@H]4O[C@H](CO)[C@@H](O)[C@H](O)[C@H]4O)[C@H]3O)O[C@H](CO)[C@@H](O)[C@@H]2O)[C@H](O)[C@H](O)[C@H]1O [ARDISIANOSIDE G] | > 100 | > 100 | > 100
CC1(C)CC[C@]23C(=O)O[C@@]4(CC[C@@H]5[C@@]6(C)CC[C@H](O[C@@H]7OC[C@H](O[C@@H]8O[C@H](CO)[C@@H](O)[C@H](O[C@@H]9O[C@H](CO)[C@@H](O[C@@H]%10O[C@H](CO)[C@@H](O)[C@H](O)[C@H]%10O)[C@H](O[C@@H]%10O[C@H](CO)[C@@H](O)[C@H](O)[C@H]%10O)[C@H]9O)[C@H]8O[C@@H]8OC[C@@H](O)[C@H](O)[C@H]8O)[C@H](O)[C@H]7O[C@@H]7O[C@H](CO)[C@@H](O)[C@H](O)[C@H]7O)C(C)(C)[C@@H]6CC[C@@]5(C)[C@]4(C)C[C@H]2O)[C@@H]3C1 [ARDISIANOSIDE H] | > 100 | > 100 | > 100
C[C@@H]1O[C@@H](O[C@H]2[C@H](O[C@H]3CO[C@@H](O[C@H]4CC[C@]5(C)[C@H]6CC[C@]78OC(=O)[C@@]9(CC[C@](C)(CO)C[C@H]97)[C@H](O)C[C@@]8(C)[C@]6(C)CC[C@H]5C4(C)C)[C@H](O[C@@H]4O[C@H](CO)[C@@H](O)[C@H](O)[C@H]4O)[C@H]3O)O[C@H](CO)[C@@H](O)[C@@H]2O)[C@H](O)[C@H](O)[C@H]1O [ARDISIANOSIDE I] | > 100 | > 100 | > 100
C[C@@H]1O[C@@H](O[C@H]2[C@H](O[C@H]3CO[C@@H](O[C@H]4CC[C@]5(C)[C@H]6CC=C7[C@@H]8C[C@@](C)(CO)CC[C@]8(CO)[C@@H]8O[C@@H]8[C@@]7(C)[C@]6(C)CC[C@H]5C4(C)C)[C@H](O[C@@H]4O[C@H](CO)[C@@H](O)[C@H](O)[C@H]4O)[C@H]3O)O[C@H](CO)[C@@H](O)[C@@H]2O)[C@H](O)[C@H](O)[C@H]1O [ARDISIANOSIDE K] | > 100 | > 100 | > 100
CC1(C)CC[C@]23CO[C@@]4(CC[C@@H]5[C@@]6(C)CC[C@H](O[C@@H]7OC[C@H](O[C@@H]8O[C@H](CO)[C@@H](O)[C@H](O[C@@H]9O[C@H](CO)[C@@H](O[C@@H]%10O[C@H](CO)[C@@H](O)[C@H](O)[C@H]%10O)[C@H](O[C@@H]%10O[C@H](CO)[C@@H](O)[C@H](O)[C@H]%10O)[C@H]9O)[C@H]8O[C@@H]8OC[C@@H](O)[C@H](O)[C@H]8O)[C@H](O)[C@H]7O[C@@H]7O[C@H](CO)[C@@H](O)[C@H](O)[C@H]7O)C(C)(C)[C@@H]6CC[C@@]5(C)[C@]4(C)C[C@H]2O)[C@@H]3C1 [ARDISIANOSIDES A] | 1.37 | 3.83 | > 100
C[C@@H]1O[C@@H](O[C@H]2[C@H](O[C@H]3CO[C@@H](O[C@H]4CC[C@]5(C)[C@H]6CC[C@]78OC[C@@]9(CC[C@](C)(CO)C[C@H]97)[C@H](O)C[C@@]8(C)[C@]6(C)CC[C@H]5C4(C)C)[C@H](O[C@@H]4O[C@H](CO)[C@@H](O)[C@H](O)[C@H]4O)[C@H]3O)O[C@H](CO)[C@@H](O)[C@@H]2O)[C@H](O)[C@H](O)[C@H]1O [ARDISICRENOSIDE A] | > 100 | > 100 | > 100
CC1(C)[C@@H](O[C@@H]2OC[C@H](O[C@@H]3O[C@H](CO)[C@@H](O)[C@H](O[C@@H]4O[C@H](CO)[C@@H](O)[C@H](O)[C@H]4O)[C@H]3O[C@@H]3OC[C@@H](O)[C@H](O)[C@H]3O)[C@H](O)[C@H]2O[C@@H]2O[C@H](CO)[C@@H](O)[C@H](O)[C@H]2O)CC[C@]2(C)[C@H]3CC[C@]45OC[C@@]6(CC[C@](C)(C=O)C[C@H]64)[C@H](O)C[C@@]5(C)[C@]3(C)CC[C@@H]12 [CYCLAMIN] | 3.85 | 12.2 | > 100
C[C@@H]1O[C@@H](O[C@H]2[C@H](O[C@H]3CO[C@@H](O[C@H]4CC[C@]5(C)[C@H]6CC[C@]78OC[C@@]9(CC[C@](C)(C=O)C[C@H]97)[C@H](O)C[C@@]8(C)[C@]6(C)CC[C@H]5C4(C)C)[C@H](O)[C@H]3O)O[C@H](CO)[C@@H](O)[C@@H]2O)[C@H](O)[C@H](O)[C@H]1O [CYCLAMIRETIN A] | > 100 | > 100 | > 100
CC1(C)[C@@H](O[C@@H]2OC[C@H](O[C@@H]3O[C@H](CO)[C@@H](O)[C@H](O)[C@H]3O[C@@H]3OC[C@@H](O)[C@H](O)[C@H]3O)[C@H](O)[C@H]2O)CC[C@]2(C)[C@H]3CC[C@]45OC[C@@]6(CC[C@](C)(C=O)C[C@H]64)[C@H](O)C[C@@]5(C)[C@]3(C)CC[C@@H]12 [PRIMULANIN] | 4.05 | > 100 | > 100

— ChEMBL document CHEMBL2086259, “13,28-Epoxy triterpenoid saponins from Ardisia japonica selectively inhibit proliferation of liver cancer cells without affecting normal liver cells” (Bioorg Med Chem Lett, 2012)
